Results taken from patent US20230087342A1, “AZEPANE DERIVATIVE” (Nippon Chemiphar Co., Ltd., priority 2019, published 2023).

Each compound was assayed against T1, human κ opioid receptors (Homo sapiens, UniProt P41145) (assay: Opioid receptor function test (Lance Ultra cAMP kit, agonist activity)). Conditions: CHO cells expressing human κ opioid receptors, 10 μM forskolin, 30 minutes.
T1 construct: host or cells: CHO cells
Type: cell-based
Protocol: Opioid Receptor Function Test
The function activity of the compound of the present invention on κ opioid receptors was examined.
Method: Using a Lance Ultra cAMP kit (Perkin Elmer), the examination was performed according to a predetermined method. In evaluation of agonist activity, CHO cells expressing human κ opioid receptors (Catalog No. CT6606, accession No. NM_000912) and a test compound were reacted in an assay buffer (1×HSS, 5 mM HEPES, pH 7.4, 0.5 mM IBMX (isobutylmethyixanthine), 0.1% SA) in the presence of 10 μM forskolin for 30 minutes. Subsequently, a cAMP detection reagent in the kit was added. One hour later, time-resolved fluorescence measurement was performed using an EnVision plate reader (Perkin Elmer). The evaluation of the test compound was performed in a concentration range of 10^−14 to 10^−7 M for the κ opioid receptor function test.

T1 sequence (P41145 whole entry): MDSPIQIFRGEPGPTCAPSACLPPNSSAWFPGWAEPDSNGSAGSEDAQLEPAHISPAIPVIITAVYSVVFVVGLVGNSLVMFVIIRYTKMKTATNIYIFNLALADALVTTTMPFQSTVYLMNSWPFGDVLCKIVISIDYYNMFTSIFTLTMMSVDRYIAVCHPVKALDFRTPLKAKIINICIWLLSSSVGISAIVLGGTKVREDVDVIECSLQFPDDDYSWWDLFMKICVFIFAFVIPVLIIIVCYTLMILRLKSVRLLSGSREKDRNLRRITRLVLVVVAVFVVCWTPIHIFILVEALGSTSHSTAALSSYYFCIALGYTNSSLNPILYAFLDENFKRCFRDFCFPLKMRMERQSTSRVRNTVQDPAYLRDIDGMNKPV

Point of comparison: Oc1ccc2c(c1)[C@@]13CCN(CCc4cc5ccccc5cn4)CC[C@@]1(O)[C@@H](C2)N(CC1CC1)CC3 [Example 123, (5aS,6R,11bS)-14-(cyclopropylmethyl)-3-(2-(isoquinolin-3-yl)ethyl)-2,3,4,5,6,7-hexahydro-6,11b-(epiminoethano)naphtho[1,2-d]azepine-5a,10(1H)-diol], EC50 0.064 nM. Against it:
- O=C(Cc1n[nH]c2ccccc12)N1CC[C@]23CCN(CC4CC4)[C@H](Cc4ccc(O)cc42)[C@]3(O)CC1 [Example 114, 1-((5aS,6R,11bR)-14-(cyclopropylmethyl)-5a,10-dihydroxy-1,2,5,5a,6,7-hexahydro-6,11b-(epiminoethano)naphtho[1,2-d]azepin-3(4H)-yl)-2-(1H-indazol-3-yl)ethan-1-one] — within 1.5-fold, 0.043 nM
- O=C(Cc1cn2ccccc2n1)N1CC[C@]23CCN(CC4CC4)[C@H](Cc4ccc(O)cc42)[C@]3(O)CC1 [Example 115, 1-((5aS,6R,11bR)-14-(cyclopropylmethyl)-5a,10-dihydroxy-1,2,5,5a,6,7-hexahydro-6,11b-(epiminoethano)naphtho[1,2-d]azepin-3(4H)-yl)-2-(imidazo[1,2-a]pyridin-2-yl)ethan-1-one] — 2.3-fold higher, 0.15 nM
- Oc1ccc2c(c1)[C@@]13CCN(CCc4cn5ccccc5n4)CC[C@@]1(O)[C@@H](C2)N(CC1CC1)CC3 [Example 116, (5aS,6R,11bS)-14-(cyclopropylmethyl)-3-(2-(imidazo[1,2-a]pyridin-2-yl)ethyl)-2,3,4,5,6,7-hexahydro-6,11b-(epiminoethano)naphtho[1,2-d]azepine-5a,10(1H)-diol] — 3-fold lower, 0.021 nM
- O=C(Cc1cc2ccccn2n1)N1CC[C@]23CCN(CC4CC4)[C@H](Cc4ccc(O)cc42)[C@]3(O)CC1 [Example 117, 1-((5aS,6R,11bR)-14-(cyclopropylmethyl)-5a,10-dihydroxy-1,2,5,5a,6,7-hexahydro-6,11b-(epiminoethano)naphtho[1,2-d]azepin-3(4H)-yl)-2-(pyrazolo[1,5-a]pyridin-2-yl)ethan-1-one] — 6.2-fold higher, 0.4 nM
- Oc1ccc2c(c1)[C@@]13CCN(CCc4cc5ccccn5n4)CC[C@@]1(O)[C@@H](C2)N(CC1CC1)CC3 [Example 118, (5aS,6R,11bS)-14-(cyclopropylmethyl)-3-(2-(pyrazolo[1,5-a]pyridin-2-yl)ethyl)-2,3,4,5,6,7-hexahydro-6,11b-(epiminoethano)naphtho[1,2-d]azepine-5a,10(1H)-diol] — 4-fold lower, 0.016 nM
- Oc1ccc2c(c1)[C@@]13CCN(CCn4cc5ccccc5n4)CC[C@@]1(O)[C@@H](C2)N(CC1CC1)CC3 [Example 120, (5aS,6R,11bS)-3-(2-(2H-indazol-2-yl)ethyl)-14-(cyclopropylmethyl)-2,3,4,5,6,7-hexahydro-6,11b-(epiminoethano)naphtho[1,2-d]azepine-5a,10(1H)-diol] — within 1.5-fold, 0.053 nM
- Oc1ccc2c(c1)[C@@]13CCN(CCn4ncc5ccccc54)CC[C@@]1(O)[C@@H](C2)N(CC1CC1)CC3 [Example 122, (5aS,6R,11bS)-3-(2-(1H-indazol-1-yl)ethyl)-14-(cyclopropylmethyl)-2,3,4,5,6,7-hexahydro-6,11b-(epiminoethano)naphtho[1,2-d]azepine-5a,10(1H)-diol] — 2.3-fold higher, 0.15 nM
- Oc1ccc2c(c1)[C@@]13CCN(CCN4CCc5ccccc54)CC[C@@]1(O)[C@@H](C2)N(CC1CC1)CC3 [Example 126, (5aS,6R,11bS)-14-(cyclopropylmethyl)-3-(2-(indolin-1-yl)ethyl)-2,3,4,5,6,7-hexahydro-6,11b-(epiminoethano)naphtho[1,2-d]azepine-5a,10(1H)-diol] — 12-fold higher, 0.74 nM
- Oc1ccc2c(c1)[C@@]13CCN(CCc4nc5ccccc5s4)CC[C@@]1(O)[C@@H](C2)N(CC1CC1)CC3 [Example 128, (5aS,6R,11bS)-3-(2-(benzo[d]thiazol-2-yl)ethyl)-14-(cyclopropylmethyl)-2,3,4,5,6,7-hexahydro-6,11b-(epiminoethano)naphtho[1,2-d]azepine-5a,10(1H)-diol] — 1.6-fold higher, 0.1 nM
